Assays:
[1] = test system: duplex DNA ladder; assay: DNA ladder gel-shift intercalation assay; assay type: binding; settings: 40 µM compound, 20 min room temperature
Method: To test whether potential inhibitors could exert their inhibitory effect via DNA intercalation, 10 µL reactions containing 500 ng of a 100-bp DNA ladder were incubated at room temperature for 20 min with 40 µM of the selected compound. Ellipticine, a compound that is known to intercalate into duplex DNA was used as a control compound at a final concentration of 40 µM. Samples were resolved on a 1% agarose gel in 0.5X Tris-borate EDTA running buffer at 120 V for 2 h. Shifts in gel mobility were visualized by post staining with ethidium bromide and images were captured on a ChemiImager 5500 (Protein Simple, Santa Clara, CA).
To assay whether these inhibitors could block NEIL1 activity through DNA intercalation, a DNA ladder gel-shift assay was performed, with ellipticine serving as a positive control. A duplex DNA ladder was incubated with each inhibitor, and analyzed for electrophoretic mobility shift.

[2] = target: T1, NEIL1 (Homo sapiens, UniProt Q96FI4); assay: qHTS fluorogenic glycosylase/AP lyase assay, 1536-well, Sp/Gh substrate; assay type: biochemical; settings: 5 concentrations
T1 construct: made in house
T1 sequence (Q96FI4 whole entry): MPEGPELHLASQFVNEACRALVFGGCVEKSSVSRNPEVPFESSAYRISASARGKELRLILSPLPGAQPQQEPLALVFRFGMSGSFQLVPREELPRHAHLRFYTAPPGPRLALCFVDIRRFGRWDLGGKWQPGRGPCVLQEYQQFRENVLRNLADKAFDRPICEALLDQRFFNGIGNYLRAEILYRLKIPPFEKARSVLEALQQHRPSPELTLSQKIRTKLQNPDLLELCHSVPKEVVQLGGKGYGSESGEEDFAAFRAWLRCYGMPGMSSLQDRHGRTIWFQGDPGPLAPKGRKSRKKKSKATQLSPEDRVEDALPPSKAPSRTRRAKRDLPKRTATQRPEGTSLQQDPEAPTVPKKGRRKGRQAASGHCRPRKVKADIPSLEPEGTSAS
Method: The fluorogenic assay was miniaturized to 4 µL in 1536-well black solid plates by optimization of the enzyme and Sp/Gh substrate concentrations. Briefly, 3 µL of 25 nM NEIL1 were dispensed into each well of a 1536-well plate (except buffer in columns 3 and 4 as a negative control). Compounds (DMSO solutions) and control (DMSO only) (23 nL) were transferred to the plate via Kalypsys pintool. The plate was incubated for 15 min at room temperature, and then 1 µL of the Sp/Gh-containing DNA substrate (75 nM final concentration) was added to start the reaction. The plate was immediately transferred into the ViewLux reader for the kinetic fluorescence read. Initial rate data were normalized against uninhibited and no-enzyme controls and the resulting percent activities as a function of compound concentration were fitted using the Hill equation.
Having established the general principle for a glycosylase screening assay, further assay development was undertaken to enable HTS in which the reaction volumes were reduced by 5-fold to a total of 4 µL. Initially, the library of pharmacologically active compounds (LOPAC^1280) was screened for inhibitors of NEIL1 as a determination of the feasibility of this high-throughput method. […] All compounds were screened at 5 different concentrations that allowed for the initial estimation of inhibitory potency (IC50) values, as well as an evaluation of the shape of the response curves. In addition to the anticipated inhibitors (known DNA intercalators, such as ellipticine (IC50 = 2 µM)) and other small molecules that have been previously established to be promiscuous inhibitors (such as aurintricarboxylic acid (IC50<1 µM)), one interesting hit from this screen was CGP-74514A (NCGC ID is NCGC00015229) (Figure 5A). CGP-74514A is a known small molecule inhibitor of Cdk1 in which the structure of this molecule is based on a purine ring backbone.

How did the “shift in electrophoretic mobility of DNA ladder (intercalation)” value [1] turn out when `Cc1c2ccncc2c(C)c2c1[nH]c1ccccc12` [ellipticine, reference compound] was run?
Its value is “major reduction in the electrophoretic mobility”.

What about the IC50 [2] of the same compound?
The IC50 was 2 µM.

From paper PMC3857224, “Inhibition of DNA Glycosylases via Small Molecule Purine Analogs” (PLoS ONE, 2013)
